Reference: article PMC10299677, “Fluorinated Benzofuran and Dihydrobenzofuran as Anti-Inflammatory and Potential Anticancer Agents” (International Journal of Molecular Sciences, 2023)

Assays:
CCL2 = CCL2 release in LPS-treated macrophages (BMDM); type: cell-based, C57BL/6J mice; conditions: for effect on CCL2 secretion: 10 µM for compound 1, 50 µM for others, LPS 24 h; for IC50: Mus musculus, Macrophage, compounds 30 min prior to 10 ng/mL LPS for 24 h
Method: C57BL/6J (10–15 weeks old) male mice were obtained from the animal care facility at the American University of Beirut. All animal procedures were performed following the recommendations of the IACUC (Institutional Animal Care and Use Committee approval 16-09-M379). BMDMs were prepared and characterized as described previously by our group. BMDMs were isolated from C57BL/6J mice by flushing the femur and tibia with RPMI-1640 culture media (Sigma-Aldrich R7388), and cells were collected and centrifuged at 300× g for 5 min. The supernatant was discarded, and the pellet was resuspended in 2 mL red blood lysis 10% (Sigma-Aldrich R7767) medium in PBS and incubated for 5 min at room temperature. After diluting the suspension of cells with 5 mL of RPMI containing 10% FBS and 1% penicillin–streptomycin, cells were centrifuged at 300× g for 5 min, and the cell pellet was resuspended in RPMI media containing 10% FBS supplemented with 15% L929-conditioned medium containing macrophage-colony stimulating factor (M-CSF1) and plated on […]. Cells were allowed to proliferate and differentiate for 5–6 days. Cells were harvested, washed, and allowed to adhere overnight in RPMI containing 10% FBS for treatment. Cells were previously characterized by flow cytometry as macrophages using this method. […] Cells were plated at 0.8 × 10^6 cells per 3.8 cm^2 well [27].
BMDMs were then treated with different concentrations of the benzofuran and dihydrobenzofuran derivatives for 30 min prior to the addition of 10 ng/mL LPS for 24 h. […] The supernatants were assessed for IL-6, PGE2, CCL2, and nitrite, the stable derivative of NO, as described previously.
IL-6, CCL2, nitrite (for NO), and PGE2 concentrations from 3–5 independent experiments were expressed as percentage of LPS alone and as mean ± SEM. COX activity was determined as percentage of PGE2 produced from exogenous arachidonic acid. Curve fitting and calculation of IC50 values were performed using GraphPad Prism (version 9.5.1 Software, La Jolla, CA, USA).

[1] = tested on: zymosan-induced air pouch inflammation; experiment: Subcutaneous zymosan-induced air pouch model of inflammation; type: in vivo, C57BL/6J mice; conditions: 50 nmol per pouch co-injected with 1% zymosan, 24 h
Method: Figure 5 Effect of fluorinated benzofuran and dihydrobenzofuran on inflammation in the zymosan-treated sterile air pouch model in mice. (A) A timeline for the zymosan-induced inflammation experiments of the air pouch model in C57/BL6 mice. The pouch was formed on day 1 and refilled on day 4 with sterile air. Mice were injected at day 6 with 1% zymosan (w/v in saline), or 0.5 mL of saline for control mice. An amount of 50 nmol of compounds 2, 3, 5, and 6, or vehicle, were co-injected into the air pouch. At 24 h post-treatment, exudates were collected. (B) Recruited cells in the pouch and PGE2 production. (C) Gene expressions of inflammatory enzymes Ptgs2 and Nos2, proinflammatory cytokines Il1α and Il1β, and chemokines Ccl3 and Ccl4. Data correspond to the mean ± SEM (n = 6–8 mice per group); * p < 0.05 compared to the zymosan-treated cells (one-way ANOVA followed by Dunnett’s test).
C57BL/6J female mice (8-week-old, 20–25 g) were kept at 5 per cage on a 12 h light–dark cycle with cotton cocoon as enrichment in temperature- and humidity-controlled rooms. Mice were provided with food and water ad libitum, and food intake and body weight were monitored throughout the study period. Approval for use of animals was obtained from the IACUC (16-11-393). Dorsal air pouches were created in mice as previously described. Six days after the initial injection of sterile air, 0.5 mL of saline containing 100 µM of benzofuran compounds 2, 3, 5, or 6 (50 nmol per pouch) or 0.2% DMSO as vehicle was co-injected in the pouch with 0.5 mL of 0.9% saline (for the control group) or 0.5 mL of 1% zymosan (w/v, for zymosan and zymosan + compound) (Sigma-Aldrich, 400140). At 24 h after treatment, the animals were sacrificed by CO2 inhalation and the air pouch washed, the exudates collected, and the cell number determined. As previously reported, the main subtype of leukocytes present in the air pouch were neutrophils (75%) and monocytes–macrophages (12–15%), as determined by selective flow cytometry. The concentrations of PGE2, CCL2, and IL-6 and the gene expression were assessed as described previously.
For gene expression, RT-PCR was performed as described previously. Briefly, cell pellets obtained by centrifugation of air pouch exudates at 300× g for 5 min at 4 °C were suspended in TriPure (Sigma Aldrich 11667165001). An amount of 2 μg of total RNA was reverse-transcribed using iScript cDNA synthesis kit (Bio-Rad Laboratories, 1708891). RT-PCR was carried out on CFX384 cycler using iTaq Universal SYBR Green Supermix kit (Bio-Rad Laboratories, 1725121) and the primers obtained from TIB Molbiol (Berlin, Germany). Oligonucleotide sequences were according to the references, except for Ptgs2 and Nos2, which were as follows: Ptgs2 (F): […]; Ptgs2 (R): […]; Nos2 (F): […]; Nos2 (R): […]. Gene expression was calculated using ^ΔΔCT method relative to the housekeeping gene 18S.

SMILES | IC50 (CCL2) [µM] | effect on CCL2 secretion (CCL2) | IL-6 production in air pouch, ELISA [1] | PGE2 levels in air pouch exudates [1] | number of cells of the air pouch exudates [1] | gene expression of proinflammatory genes (Il1a, Il1b, Ccl3, Ccl4, Ptgs2, Nos2) in air pouch cells ([1]; RT-PCR) | CCL2 formation in air pouch, ELISA [1] | expression of Ccl4 in air pouch cells ([1]; RT-PCR)
COC(=O)/C=C1/Oc2ccc(Br)cc2C1(F)F [Compound 1] | 8 | moderate effect |  |  |  |  |  | 
O=C(O)Cc1oc2ccc(-c3ccccc3)cc2c1F [Compound 5] |  |  |  |  | significantly reduced |  | inhibited | 
C=C(C)c1ccc2oc(CC(=O)O)c(F)c2c1 [Compound 6] |  |  | inhibited | inhibited | significantly reduced |  | inhibited | modestly inhibited

Continued, in another order:

IC50 (CCL2) [µM] | SMILES | effect on CCL2 secretion (CCL2) | IL-6 production in air pouch, ELISA [1] | PGE2 levels in air pouch exudates [1] | number of cells of the air pouch exudates [1] | gene expression of proinflammatory genes (Il1a, Il1b, Ccl3, Ccl4, Ptgs2, Nos2) in air pouch cells ([1]; RT-PCR) | CCL2 formation in air pouch, ELISA [1] | expression of Ccl4 in air pouch cells ([1]; RT-PCR)
1.52 | O=C(O)/C=C1/Oc2ccc(Br)cc2C1(F)F [Compound 2] | significant decreases | inhibited | inhibited | significantly reduced | strong inhibition |  | 
1.5 | O=C(O)/C=C1\Oc2ccc(Br)cc2C1(F)F [Compound 3] | significant decreases |  | inhibited | significantly reduced |  | inhibited | modestly inhibited
19.3 | COC(=O)CC1(O)Oc2ccc(Br)cc2C1(F)F (centres unmarked) [Compound 8] | significant decreases |  |  |  |  |  | 
